One test deals with Venturia inaequalis. Put plainly: Example E: in vivo preventive test on Venturia inaequalis (apples). The conditions noted are these: table E, 100 ppm, evaluated 10 days after inoculation. As for the experimental part:
(§1) Example E: In Vivo Preventive Test on Venturia inaequalis (Apples) [table] To produce a suitable preparation of active compound, 1 part by weight of active compound is mixed with the stated amounts of solvent and emulsifier, and the concentrate is diluted with water to the desired concentration. To test for preventive activity, young plants are sprayed with the preparation of active compound at the stated rate of application. After the spray coating has dried on, the plants are inoculated with an aqueous conidia suspension of the causal agent of apple scab (Venturia inaequalis) and then remain for 1 day in an incubation cabinet at approximately 20° C. and a relative atmospheric humidity of 100%. The plants are then placed in a greenhouse at approximately 21° C. and a relative atmospheric humidity of approximately 90%.

The subject of the next test is Uromyces appendiculatus. Put plainly: Example F: in vivo preventive test on Uromyces appendiculatus (beans). The conditions noted are these: table F, 100 ppm, evaluated 10 days after inoculation. As for the experimental part: as §1, with “F:” for “E:”, “Uromyces appendiculatus (Beans)” for “Venturia inaequalis (Apples)”, “spore” for “conidia”, “bean rust (Uromyces appendiculatus)” for “apple scab (Venturia inaequalis)”

A further test concerns Septoria tritici. Kind of test: Example L: in vivo preventive test on Septoria tritici (wheat). The conditions noted are these: table L; 500 ppm; wheat plants; grading 24 days after contamination. The method, boiled down:
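Scipion wheat at 1-leaf stage sprayed with compound, inoculated 24 h later with Septoria tritici spores (500 000/mL). Incubated 72 h at 18° C., 100% RH, then 21 days at 90% RH; % efficacy versus untreated controls graded 24 days post-inoculation.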

Test [1] relates to Pyrenophora teres. Kind of test: Example M: in vivo preventive test on Pyrenophora teres (barley). The note with it: table M, 500 ppm, evaluated 8 days after inoculation. As to the method: Example M: In Vivo Preventive Test on Pyrenophora teres (Barley) [table] To produce a suitable preparation of active compound, 1 part by weight of active compound or active compound combination is mixed with the stated amounts of solvent and emulsifier, and the concentrate is diluted with water to the desired concentration. To test for preventive activity, young plants are sprayed with the preparation of active compound or active compound combination at the stated rate of application. After the spray coating has been dried, the plants are sprayed with a spore suspension of Pyrenophora teres. The plants remain for 48 hours in an incubation cabinet at approximately 20° C. and a relative atmospheric humidity of approximately 100%. The plants are placed in the greenhouse at a temperature of approximately 20° C. and a relative atmospheric humidity of approximately 80%.

Test [2] concerns Pyrenophora teres. Put plainly: Example N: in vivo preventive test on Pyrenophora teres (barley). The note with it: table N; 500 ppm; barley plants; grading 14 days after contamination. The method, boiled down: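 Barley (cv. Plaisant) at 1-leaf stage was sprayed with compound, then inoculated 24 h later with P. teres spores (12 000/mL). Plants were held 48 h at 20 °C, 100% RH, then 12 days at 20 °C, 70-80% RH; % efficacy versus solvent-treated controls was graded 14 days post-inoculation.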

For test [3], the system named is Fusarium nivale (var. majus). Kind of test: Example P: in vivo preventive test on Fusarium nivale (wheat). The conditions noted are these: table P, 500 ppm, evaluated 5 days after inoculation. As for the experimental part: Example P: In Vivo Preventive Test on Fusarium nivale (Wheat) [table] To produce a suitable preparation of active compound, 1 part by weight of active compound or active compound combination is mixed with the stated amounts of solvent and emulsifier, and the concentrate is diluted with water to the desired concentration. To test for preventive activity, young plants are sprayed with the preparation of active compound or active compound combination at the stated rate of application. After the spray coating has been dried, the plants are slightly injured by using a sandblast and afterwards they are sprayed with a conidia suspension of Fusarium nivale (var. majus). The plants are placed in the greenhouse under a translucent incubation cabinet at a temperature of approximately 10° C. and a relative atmospheric humidity of approximately 100%.

A further test relates to Puccinia recondita. Put plainly: Example R: in vivo preventive test on Puccinia recondita (brown rust on wheat). The conditions noted are these: table R; 500 ppm; wheat plants; grading 12 days after contamination. The gist of the method: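 Wheat seedlings (Scipion) sprayed with active ingredient at 1 leaf stage, then inoculated 24 hours later with 100 000 spores/mL Puccinia recondita. Incubated 24 hours at 20° C. and 100% humidity, then 10 days at 20° C. and 70-80% humidity; % efficacy versus solvent-treated controls graded 12 days post-contamination.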

Consider `CC(C1CCCc2ccccc21)N(C(=O)c1c(C(F)F)nn(C)c1F)C1CC1` (centres unmarked) [I.23], for which the Efficacy is listed as 100% in the test on Venturia inaequalis; 96% in the test with Uromyces appendiculatus; 100% in the test with Septoria tritici; 100% with Pyrenophora teres [1]; 100% with Pyrenophora teres [2]; 100% in test [3]. Further, the Efficacy in the test with Puccinia recondita worked out at 97%.
For `Cn1nc(C(F)F)c(C(=O)N(CC2CC(C)(C)Oc3ccccc32)C2CC2)c1F` (centres unmarked) [I.33], the Efficacy is on record as 97% in the test on Venturia inaequalis; 100% in the test on Uromyces appendiculatus; 100% in the test on Septoria tritici; 100% in the test on Pyrenophora teres [1]; 100% in the test with Pyrenophora teres [2]; 100% in test [3]. In the test on Puccinia recondita, this molecule came in with an Efficacy of 97%.

(Values after patent publication US9686985B2, “Fungicide N-cycloalkyl-N-bicyclicmethylene-carboxamide derivatives” (BAYER INTELLECTUAL PROPERTY GMBH, priority 2012, dated 2017).)
